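Step 1: Grow cells in 96-well plates. Step 2: Expose to compound for 48 hours at 5 concentrations. Step 3: Interpolate endpoints linearly; if unreached, use highest concentration. GI50 is the concentration that inhibits growth by half. TGI denotes the concentration required for complete inhibition of growth.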
Columns and labels:
Assay in all cases: NCI anticancer screen, dose series, 48 h
A498 renal = tested on: A498 renal
DU-145 prostate = tested on: DU-145 prostate
SF-295 CNS = tested on: SF-295 CNS
HOP-62 NSCLC = tested on: HOP-62 NSCLC
MDA-MB-435 = tested on: MDA-MB-435
SK-MEL-28 melanoma = tested on: SK-MEL-28 melanoma
SK-MEL-5 melanoma = tested on: SK-MEL-5 melanoma
HOP-92 NSCLC = tested on: HOP-92 NSCLC
MDA-MB-231 breast = tested on: MDA-MB-231 breast
UO-31 renal = tested on: UO-31 renal

O=C1c2cccc3cccc(c23)C(=O)N1CCCCCN1CCN(CCN=c2cc3n(-c4ccc(Cl)cc4)c4ccccc4nc-3cc2Nc2ccc(Cl)cc2)CC1
GI50 (A498 renal): > 50 µM | TGI (A498 renal): > 50 µM | GI50 (DU-145 prostate): 38.3 µM | TGI (DU-145 prostate): > 50 µM | GI50 (SF-295 CNS): 13 µM | TGI (SF-295 CNS): > 50 µM | GI50 (HOP-62 NSCLC): 8.63 µM | TGI (HOP-62 NSCLC): 23.5 µM | GI50 (MDA-MB-435): 9.21 µM | TGI (MDA-MB-435): 21.4 µM | GI50 (SK-MEL-28 melanoma): 18.9 µM | TGI (SK-MEL-28 melanoma): > 50 µM | GI50 (SK-MEL-5 melanoma): 7.46 µM | TGI (SK-MEL-5 melanoma): 18.1 µM | GI50 (HOP-92 NSCLC): 7.32 µM | TGI (HOP-92 NSCLC): 19.7 µM | GI50 (MDA-MB-231 breast): 5.82 µM | TGI (MDA-MB-231 breast): 30.3 µM

CCCCCCCC/C=C/CCCCCCCC1=NC(C)(C)CN1C(C)(C)CO
GI50 (A498 renal): 11.5 µM | TGI (A498 renal): 25.7 µM | GI50 (DU-145 prostate): 1.86 µM | TGI (DU-145 prostate): 3.32 µM | GI50 (SF-295 CNS): 1.81 µM | TGI (SF-295 CNS): 3.52 µM | GI50 (HOP-62 NSCLC): 1.76 µM | TGI (HOP-62 NSCLC): 3.28 µM | GI50 (MDA-MB-435): 1.72 µM | TGI (MDA-MB-435): 3.26 µM | GI50 (SK-MEL-28 melanoma): 1.79 µM | TGI (SK-MEL-28 melanoma): 3.18 µM | GI50 (SK-MEL-5 melanoma): 1.75 µM | TGI (SK-MEL-5 melanoma): 3.13 µM | GI50 (MDA-MB-231 breast): 1.6 µM | TGI (MDA-MB-231 breast): 3.77 µM

O=C1/C(=C/c2ccccc2)Oc2cc(O)ccc21
TGI (DU-145 prostate): > 100 µM | TGI (SF-295 CNS): > 100 µM | TGI (HOP-62 NSCLC): > 100 µM | TGI (MDA-MB-435): > 100 µM | TGI (SK-MEL-28 melanoma): > 100 µM | TGI (SK-MEL-5 melanoma): > 100 µM | TGI (MDA-MB-231 breast): > 100 µM | TGI (UO-31 renal): > 100 µM

O=c1[nH]ccc(CNC23CC4CC(CC(C4)C2)C3)c1O
TGI (A498 renal): > 100 µM | TGI (SF-295 CNS): > 100 µM | TGI (HOP-62 NSCLC): > 100 µM | TGI (SK-MEL-5 melanoma): > 100 µM | TGI (UO-31 renal): > 100 µM

CN1CCN(C2=NC(=O)/C(=C\c3ccc(N(C)C)cc3)S2)CC1
GI50 (A498 renal): > 100 µM | TGI (A498 renal): > 100 µM | GI50 (DU-145 prostate): > 100 µM | TGI (DU-145 prostate): > 100 µM | GI50 (SF-295 CNS): > 100 µM | TGI (SF-295 CNS): > 100 µM | GI50 (HOP-62 NSCLC): > 100 µM | TGI (HOP-62 NSCLC): > 100 µM | GI50 (MDA-MB-435): > 100 µM | TGI (MDA-MB-435): > 100 µM | GI50 (SK-MEL-28 melanoma): > 100 µM | TGI (SK-MEL-28 melanoma): > 100 µM | GI50 (SK-MEL-5 melanoma): > 100 µM | TGI (SK-MEL-5 melanoma): > 100 µM | GI50 (MDA-MB-231 breast): 74.5 µM | TGI (MDA-MB-231 breast): > 100 µM | GI50 (UO-31 renal): 71 µM | TGI (UO-31 renal): > 100 µM

CC(C)(C)C#COC(=O)c1ccccc1
TGI (A498 renal): > 100 µM | TGI (SF-295 CNS): > 100 µM | TGI (HOP-62 NSCLC): > 100 µM | TGI (SK-MEL-5 melanoma): > 100 µM | TGI (UO-31 renal): > 100 µM

CCCCNC(c1ccc(Cl)cc1)C(O)c1ccc(Cl)cc1 (stereo not drawn)
GI50 (A498 renal): 2.29 µM | TGI (A498 renal): 5.57 µM | GI50 (DU-145 prostate): 3.1 µM | TGI (DU-145 prostate): 10.4 µM | GI50 (SF-295 CNS): 1.02 µM | TGI (SF-295 CNS): 2.44 µM | GI50 (HOP-62 NSCLC): 2.19 µM | TGI (HOP-62 NSCLC): 9.71 µM | GI50 (MDA-MB-435): 1.61 µM | TGI (MDA-MB-435): 3.57 µM | GI50 (SK-MEL-28 melanoma): 2.06 µM | TGI (SK-MEL-28 melanoma): 4.5 µM | GI50 (SK-MEL-5 melanoma): 1.73 µM | TGI (SK-MEL-5 melanoma): 3.2 µM | GI50 (HOP-92 NSCLC): 1.13 µM | TGI (HOP-92 NSCLC): 5.16 µM | GI50 (UO-31 renal): 1.55 µM | TGI (UO-31 renal): 10.2 µM

Cc1cc(=O)[nH]c(NNC(C#N)c2cccc([N+](=O)[O-])c2)n1 (stereo not drawn)
TGI (SF-295 CNS): > 100 µM | TGI (HOP-62 NSCLC): > 100 µM | TGI (SK-MEL-28 melanoma): > 100 µM | TGI (SK-MEL-5 melanoma): > 100 µM | TGI (HOP-92 NSCLC): > 100 µM | TGI (UO-31 renal): > 100 µM

NCCO/C=C/C(N)C(=O)O (stereo not drawn)
TGI (DU-145 prostate): > 100 µM | TGI (SF-295 CNS): > 100 µM | TGI (HOP-62 NSCLC): > 100 µM | TGI (MDA-MB-435): > 100 µM | TGI (SK-MEL-28 melanoma): > 100 µM | TGI (SK-MEL-5 melanoma): > 100 µM | TGI (HOP-92 NSCLC): > 100 µM | TGI (MDA-MB-231 breast): > 100 µM | TGI (UO-31 renal): > 100 µM

COC1(OC)C2(Cl)C3=CCCC=C3C1(Cl)C(Cl)=C2Cl
TGI (SF-295 CNS): 74.2 µM | TGI (HOP-62 NSCLC): 71.1 µM | TGI (SK-MEL-28 melanoma): > 100 µM | TGI (SK-MEL-5 melanoma): 29.2 µM | TGI (HOP-92 NSCLC): 70.1 µM | TGI (UO-31 renal): 69 µM

C/C(=N/NC(=S)Nc1ccccc1)c1nc2ccc(Cl)cc2[nH]1
GI50 (A498 renal): 0.0806 µM | TGI (A498 renal): 0.708 µM | GI50 (DU-145 prostate): 0.0821 µM | TGI (DU-145 prostate): 0.645 µM | GI50 (HOP-62 NSCLC): 0.101 µM | TGI (HOP-62 NSCLC): 0.935 µM | GI50 (SK-MEL-28 melanoma): 0.18 µM | TGI (SK-MEL-28 melanoma): 0.872 µM | GI50 (SK-MEL-5 melanoma): 0.0989 µM | TGI (SK-MEL-5 melanoma): 0.457 µM | GI50 (HOP-92 NSCLC): 0.585 µM | TGI (HOP-92 NSCLC): 1.52 µM | GI50 (MDA-MB-231 breast): 0.205 µM | TGI (MDA-MB-231 breast): 1.79 µM | GI50 (UO-31 renal): 0.0738 µM | TGI (UO-31 renal): 0.795 µM

Cc1cc(Cl)ccc1NC(=O)CCCC(=O)C1C/C(=N/O)CC/C1=N\O (stereo not drawn)
TGI (A498 renal): > 100 µM | TGI (SF-295 CNS): > 100 µM | TGI (HOP-62 NSCLC): > 100 µM | TGI (SK-MEL-28 melanoma): > 100 µM | TGI (SK-MEL-5 melanoma): > 100 µM | TGI (HOP-92 NSCLC): > 100 µM | TGI (UO-31 renal): > 100 µM

CN(C)CCC(=O)Nc1ccc(-n2cc(-c3cccc(NC(=S)Nc4cccc(-c5cn(-c6ccc(NC(=O)CCN(C)C)cc6)nn5)c4)c3)nn2)cc1
GI50 (A498 renal): > 100 µM | TGI (A498 renal): > 100 µM | GI50 (DU-145 prostate): > 100 µM | TGI (DU-145 prostate): > 100 µM | GI50 (SF-295 CNS): 20.2 µM | TGI (SF-295 CNS): 49 µM | GI50 (HOP-62 NSCLC): 33.1 µM | TGI (HOP-62 NSCLC): > 100 µM | GI50 (MDA-MB-435): 26.7 µM | TGI (MDA-MB-435): > 100 µM | GI50 (SK-MEL-28 melanoma): 24.5 µM | TGI (SK-MEL-28 melanoma): 53.4 µM | GI50 (SK-MEL-5 melanoma): 43.9 µM | TGI (SK-MEL-5 melanoma): > 100 µM | GI50 (HOP-92 NSCLC): 19.5 µM | TGI (HOP-92 NSCLC): 53.9 µM | GI50 (MDA-MB-231 breast): 27.2 µM | TGI (MDA-MB-231 breast): 58.5 µM

Cc1cccc(C)c1NC(=O)C(=O)Cc1nc2ccccc2s1
TGI (A498 renal): > 100 µM | TGI (SF-295 CNS): > 100 µM | TGI (HOP-62 NSCLC): > 100 µM | TGI (SK-MEL-28 melanoma): > 100 µM | TGI (SK-MEL-5 melanoma): > 100 µM | TGI (HOP-92 NSCLC): > 100 µM | TGI (UO-31 renal): > 100 µM

OCc1ccc(N(Cc2ccc(F)cc2)Cc2ccc(F)cc2)cc1Cl
GI50 (A498 renal): 0.18 µM | TGI (A498 renal): 0.989 µM | GI50 (HOP-62 NSCLC): 10.9 µM | TGI (HOP-62 NSCLC): 23.2 µM | GI50 (MDA-MB-435): 10.2 µM | TGI (MDA-MB-435): 22.4 µM | GI50 (SK-MEL-28 melanoma): 13.9 µM | TGI (SK-MEL-28 melanoma): 27.6 µM | GI50 (SK-MEL-5 melanoma): 15.3 µM | TGI (SK-MEL-5 melanoma): 28.9 µM | GI50 (HOP-92 NSCLC): 2.21 µM | TGI (HOP-92 NSCLC): 10.2 µM | GI50 (MDA-MB-231 breast): 11.8 µM | TGI (MDA-MB-231 breast): 25.9 µM | GI50 (UO-31 renal): 3.49 µM | TGI (UO-31 renal): 16.2 µM

CC(=O)[CH-]C(C)=O.CC(=O)[CH-]C(C)=O.[O-]c1ccccc1.[O-]c1ccccc1.[Ti+4]
GI50 (SF-295 CNS): > 100 µM | TGI (SF-295 CNS): > 100 µM | GI50 (SK-MEL-28 melanoma): > 100 µM | TGI (SK-MEL-28 melanoma): > 100 µM | GI50 (SK-MEL-5 melanoma): > 100 µM | TGI (SK-MEL-5 melanoma): > 100 µM | GI50 (HOP-92 NSCLC): > 100 µM | TGI (HOP-92 NSCLC): > 100 µM | GI50 (UO-31 renal): > 100 µM | TGI (UO-31 renal): > 100 µM

O=c1c(Cc2ccccc2)c(O)cc2n1CCC2
TGI (A498 renal): > 100 µM | TGI (SF-295 CNS): > 100 µM | TGI (HOP-62 NSCLC): > 100 µM | TGI (SK-MEL-28 melanoma): > 100 µM | TGI (SK-MEL-5 melanoma): > 100 µM | TGI (HOP-92 NSCLC): > 100 µM | TGI (UO-31 renal): > 100 µM

Cc1nnc2n1N=C(c1ccccc1)C(c1ccccc1)S2 (stereo not drawn)
TGI (A498 renal): > 100 µM | TGI (SF-295 CNS): > 100 µM | TGI (HOP-62 NSCLC): > 100 µM | TGI (SK-MEL-5 melanoma): > 100 µM | TGI (HOP-92 NSCLC): > 100 µM | TGI (UO-31 renal): > 100 µM

CCOc1c(Br)cc(Br)cc1C=C(C#N)C#N
TGI (A498 renal): 8.8 µM | TGI (SF-295 CNS): > 10 µM | TGI (HOP-62 NSCLC): > 10 µM | TGI (MDA-MB-435): > 10 µM | TGI (SK-MEL-28 melanoma): > 10 µM | TGI (SK-MEL-5 melanoma): > 10 µM | TGI (HOP-92 NSCLC): > 10 µM

From PubChem BioAssay (NCI)
